Source: PubChem BioAssay AID449759 (The Scripps Research Institute Molecular Screening Center, 2010)
Activity calls are given as the source filed them. No rule for the calls is given here.

Tested on: NIH 3T3 cells, IRF-1 mRNA qPCR, IFNg-stimulated
Assay: activators of IFNg-induced IRF-1 mRNA expression, late-stage follow-up, counter-screen for STAT1 activator project, SYBR qPCR, NIH 3T3 cells, powder samples (AID 449759)
Conditions: at 10 µM; stronger effect = higher value

Compound | fold change
COc1ccc2[nH]c3c(c2c1)CCn1c-3nc2ccccc2c1=O | 0.89 (inactive)
CCOC(=O)/C(C#N)=C/c1cc(C)n(-c2ccccc2)c1C | 0.7 (inactive)
CCN(CC)c1ccc2cc(C(=O)Nc3ccccn3)c(=O)oc2c1 | 0.85 (inactive)
Cc1ccc(C(=O)Nc2nc3ccccc3s2)s1 | 0.93 (inactive)
COc1ccc(-c2csc(N3C(=O)CNC3=S)n2)cc1 | 0.34 (inactive)
N#C/C(=C\c1ccc(N2CCOCC2)o1)c1nc2ccccc2[nH]1 | 0.5 (inactive)
COc1ccc(-c2cc(C)nc3c(-c4ccccc4)cnn23)cc1 | 0.81 (inactive)
O=C(/C=C/Nc1ccccc1F)c1ccc(Br)cc1 | 0.77 (inactive)
